Test results taken from US11692227B2, “Method for screening for skin whitening agent by using SDF1 promoter region” (AJOU UNIVERSITY INDUSTRY-ACADEMIC COOPERATION FOUNDATION, priority 2018, dated 2023).

System: SDF1 promoter
Assay: Screening of pigment regulators using SDF1 promoter (pGF1 reporter fibroblast cell line, Luciferase assay)
Assay type: cell-based
Conditions: fibroblasts infected with SDF1 promoter pGF1 vector virus; 1 ug TPA; 1 ug and 10 ug retinoic acid; 24 hours after treatment
Excerpt: In order to express the SDF1 promoter gene, the SDF1 promoter gene was inserted into pGF1-vector to construct the SDF1 promoter GFP vector. In order to produce the virus into which the constructed vector was inserted, a virus production system of lentivirus was used. PVSV-G (SystemBiosciences, USA) encoding the required structural protein, the pGF1 vector into which the SDF1 promoter gene was inserted, and pGag-pol were simultaneously co-transfected into HEK-293TN cells by a liposome method. After 6 hours, the medium was replaced with a new medium, cultured for 48 hours, and the medium containing the virus was harvested, and the harvested virus was used for fibroblasts infection. As for the infected fibroblasts, only cells infected by Puromycin were selected for the experiment.
In order to confirm the expression of the prepared SDF1 promoter, Luciferase assay, an experiment that can confirm the level of GFP, was conducted to observe the expression level.
Cells were cultured in 12 well plates in an amount of 1×10^3, and after 24 hours, 1 ug of TPA, 10 ng and 100 ng of EGF, and 1 ug and 10 ug of retinoic acid were treated, respectively. 24 hours after treatment with the drug, the activity of GFP was measured through Luciferase assay.

CCCCCCCCCCCCCC(=O)O[C@@H]1[C@@H](C)[C@@]2(O)[C@@H](C=C(CO)C[C@]3(O)C(=O)C(C)=C[C@@H]23)[C@@H]2C(C)(C)[C@]12OC(C)=O [TPA]
SDF1 promoter activity (activity of GFP measured through Luciferase assay): decreased
